Test system: male mice
Assay: Scanning electron microscopy (SEM) of sperm morphology
Format: in vivo
Details: protocol 2 at 63 days, n = 3
Source text: Fig. 4. CDD-2807 treatment induces a reversible contraceptive effect. […] Fertility was restored to levels equal to those of controls after halting CDD-2807 treatment for 3 weeks in protocol 1; in protocol 2, fertility was restored an average of 53.5 ± 5.1 days after completion of CDD-2807 treatment compared to the controls (3.5 ± 0.2 days). (C) There are no observed morphological differences in testes from control and CDD-2807 treatment in mice from protocol 2 at 63 days; testis size of CDD-2807–treated mice in protocol 2 (87.13 ± 5.87 mg) was not statistically changed versus control males (111.10 ± 6.50 mg). […] (H) For SEM quantification, a minimum of 100 sperm per group were counted and determined to be either normal or abnormal (having head or tail defects). Counts were totaled and then turned into a percentage of normal versus abnormal sperm per group. By SEM analysis, 94.7 ± 2.7% of the sperm in the CDD-2807–treated mice (n = 3) in protocol 2 had morphologic defects at 63 days, including head and tail defects as shown, compared to only 10.9 ± 2.7% abnormal sperm for the controls (n = 3). Scale bars: 0.5 cm (C), […] (H). **P < 0.01, ***P < 0.001, ****P < 0.0001.

Compound: O=C(c1ccc2[nH]nc(C#Cc3ccccc3-c3ccccc3)c2c1)N1CC2(CCCNC2)C1 [CDD-2807]
- sperm with morphologic defects (abnormal sperm) by SEM: 94.7 ± 2.7%

Reference: paper PMC11842024, “Reversible male contraception by targeted inhibition of serine/threonine kinase 33” (Science (New York, N.Y.), 2024)
